Measurements as given in patent publication US7335500B2, “Production of fucosylated carbohydrates by enzymatic fucosylation synthesis of sugar nucleotides; and in situ regeneration of GDP-fucose” (The Scripps Research Institute, priority 1991, dated 2008).
Where two headings read alike, the source gives them in different places.

Key:
[1] = target: T1, human plasma type α1,3FucT (Homo sapiens, UniProt Q11128); assay: Substrate specificity and inhibition study of α1,3FucT (GDP-14C-Fuc transfer assay); format: biochemical; conditions: for IC50 / Vrel (relative maximal velocities) / Km: 0.1 mM GDP-Fuc; for IC50: 10 mM Mn2+ and 10 mM LacNAc at pH 6.2 and 37° C.; for inhibition in combination with GDP: GDP present at its IC50 of 0.05 mM, FIG. 3: 34 mM Compound 50, 0.2 mM 14C-GDP-fucose, 20 mM MnCl2, pH 6.2; for mode of inhibition: versus LacNAc; for Vrel (relative maximal velocities): 10 mM MnCl2 and 10 mM Galβ1,4GlcNAc, Galβ1,4GlcNAc = 100; for Km: acceptor substrate, 10 mM MnCl2; for relative maximum velocity (Vrel) based on LacNAc: relative rate at Vmax
T1 sequence (Q11128 1-374): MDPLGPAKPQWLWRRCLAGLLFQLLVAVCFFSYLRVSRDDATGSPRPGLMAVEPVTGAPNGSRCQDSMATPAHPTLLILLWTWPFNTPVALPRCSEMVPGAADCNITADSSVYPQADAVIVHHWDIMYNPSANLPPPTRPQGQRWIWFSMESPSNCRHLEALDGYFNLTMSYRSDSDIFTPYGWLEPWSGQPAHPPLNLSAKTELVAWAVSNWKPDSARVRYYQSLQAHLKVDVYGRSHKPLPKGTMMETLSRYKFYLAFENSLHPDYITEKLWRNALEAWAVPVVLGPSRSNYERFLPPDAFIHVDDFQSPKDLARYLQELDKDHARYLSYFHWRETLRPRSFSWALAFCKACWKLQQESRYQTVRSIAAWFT
Protocol: (§1) The assay procedure was essentially the same as described previously [Fukowska-Latallo et al, Gene & Development, 4:1288 (1990)] with some modifications. A stock mixture containing 0.25 mM GDP-^14C-Fuc (5000 cpm/mL), 6.25 mM ATP, 25 mM MnCl2 and 62.5 mM sodium cacodylate buffer, pH 6.2 was mixed freshly and kept on ice. […] The incubation was carried out at 37° C. for 30 to 240 minutes depending upon the acceptor under study. Separate assays in the absence of acceptor were used to correct for background hydrolysis of GDP-Fuc. Upon completion of incubation, 400 μL of a 25 percent (v/v) suspension of QAE-Sephadex was added. […] From the supernatant fluid, 200 μL were extracted and mixed with 10 mL of scintillation cocktail. The radioactivity was counted on a scintillation counter. […] This assay can be run in the absence of ATP.

[2] = target: T2, α1,3/4Fucosyltransferase (Homo sapiens, UniProt P21217); assay: Substrate specificity and inhibition study of α1,3/4FucT (GDP-14C-Fuc transfer assay); format: biochemical; conditions: for Vrel (relative velocities): 0.20 mM GDP-Fuc, 20 mM MnCl2, 10 mM acceptor, Galβ1,4GlcNAc = 100
T2 sequence (P21217 1-361): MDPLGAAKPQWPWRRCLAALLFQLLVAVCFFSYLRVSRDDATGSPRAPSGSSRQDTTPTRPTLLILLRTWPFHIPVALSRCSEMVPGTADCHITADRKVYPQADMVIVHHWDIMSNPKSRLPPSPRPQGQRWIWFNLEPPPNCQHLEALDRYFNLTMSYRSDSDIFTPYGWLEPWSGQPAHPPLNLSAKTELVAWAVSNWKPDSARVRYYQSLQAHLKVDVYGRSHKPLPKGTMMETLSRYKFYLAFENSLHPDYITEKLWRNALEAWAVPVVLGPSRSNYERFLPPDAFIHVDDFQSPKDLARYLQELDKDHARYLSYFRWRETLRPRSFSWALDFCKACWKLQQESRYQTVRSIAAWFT
Protocol: as §1

Molecule | IC50 [1] [mM] | Vrel (relative maximal velocities) [1] | Vrel (relative velocities) [2] | other results
C[C@@H]1OC(OP(=O)(O)OP(=O)(O)OC[C@H]2O[C@@H](n3cnc4c(=O)[nH]c(N)nc43)[C@H](O)[C@@H]2O)[C@@H](O)[C@H](O)[C@@H]1O (some centres unmarked) [GDP-Fuc, guanosine 5′-diphospho fucose] |  |  |  | inhibition of α1,3FucT (in words) ([1]; at concentration above 0.2 mM in the presence of 10 mM LacNAc): potent inhibitor; inhibition of α1,3/4FucT (in words) [2]: not an inhibitor
Nc1nc2c(ncn2C2OC(COP(=O)(O)OP(=O)(O)OC3OC(CO)C(O)C(O)C3O)C(O)C2O)c(=O)[nH]1 (centres unmarked) [GDP-Man, guanosine 5′-diphospho-mannose] | 2 |  |  | 
CC(=O)N[C@H]1C(O)O[C@H](CO)[C@@H](O)[C@@H]1O[C@@H]1O[C@H](CO)[C@H](O)[C@H](O)[C@H]1O (some centres unmarked) [Galβ1,3GlcNAc] | > 50 | 130 | 580 | 
C=CCO[C@@H]1O[C@H](CO)[C@@H](O[C@@H]2O[C@H](CO)[C@H](O)[C@H](O)[C@H]2O)C[C@H]1NC(C)=O [Galβ1,4(3-deoxy)GlcNAcβOallyl] |  |  |  | inhibition of α1,3FucT (in words) ([1]; acceptor substrate analog): weak inhibitor
CC(=O)N[C@H]1C(O)O[C@H](CO)[C@H](O[C@@H]2O[C@H](CO)[C@H](O)[C@H](O)[C@H]2O)[C@@H]1O (some centres unmarked) [Galβ1,4GalNAc] |  |  | 27 | 
C=CCO[C@@H]1O[C@H](CO)[C@@H](O[C@@H]2O[C@H](CO)[C@H](O)[C@H](O)[C@H]2O)[C@H](O)[C@H]1NC(C)=O [Galβ1,4GlcNAcβOallyl] |  | 64 |  | Km [1]: 16 mM
CC(=O)N[C@H]1[C@H](OC[C@H]2O[C@@H](O[C@H]3[C@H](O)[C@@H](O)C(O)O[C@@H]3CO)[C@H](O)[C@@H](O)[C@H]2O)O[C@H](CO)[C@@H](O)[C@@H]1O (some centres unmarked) [GlcNAcβ1,6Galβ1,4Glc] |  |  | 13 | 
NeuAcα2,3Galβ1,4GlcNAcβOallyl |  | 380 |  | 

Second part, led by results:

IC50 [1] [mM] | Vrel (relative maximal velocities) [1] | Vrel (relative velocities) [2] | Molecule | other results
52 |  |  | OCC1N[C@@H](CO)C(O)[C@@H]1O (some centres unmarked) | 
34 |  |  | CC1N[C@@H](CO)C(O)[C@@H]1O (stereo partly drawn) [Compound 50, (2R)-Methyl-(5S)-hydroxymethyl-(3R, 4R)-dihydroxyprollidine] | inhibition in combination with GDP [1]: profound, synergistic inhibition; mode of inhibition [1]: competitive inhibitor
80 |  |  | CC1NC(CO)C(O)C1O (centres unmarked) [Compound 53] | inhibition in combination with GDP [1]: profound, synergistic inhibition; mode of inhibition [1]: competitive inhibitor
0.05 |  |  | Nc1nc2c(ncn2[C@@H]2O[C@H](COP(=O)(O)OP(=O)(O)O)[C@@H](O)[C@H]2O)c(=O)[nH]1 [GDP, guanosine 5′-diphosphate] | Ki ([1]; footnote of Table 3, read-out: Ki): 19 mM; Ki ([1]; noncompetitive inhibitor versus LacNAc, read-out: Kii): 0.13 mM; Ki ([1]; noncompetitive inhibitor versus LacNAc, read-out: Kis): 0.16 mM; mode of inhibition [1]: noncompetitive inhibitor
> 100 |  |  | CC(=O)N[C@H]1C(O)O[C@H](CO)[C@H](O)[C@@H]1O[C@@H]1O[C@H](CO)[C@H](O)[C@H](O)[C@H]1O (some centres unmarked) [Galβ1,3GalNAc] | 
 | 51 | 310 | OC[C@H]1O[C@@H](O[C@H]2[C@H](O)[C@@H](O)C(O)S[C@@H]2CO)[C@H](O)[C@@H](O)[C@H]1O (some centres unmarked) [Galβ1,4(5-thioGlc), Galβ1,4(5-thio)Glc] | Km [1]: 12 mM
 | 150 | 120 | OC[C@H]1O[C@@H](O[C@H]2[C@H](O)[C@@H](O)C(O)O[C@@H]2CO)[C@H](O)[C@@H](O)[C@H]1O (some centres unmarked) [Galβ1,4Glc] | relative maximum velocity (Vrel) based on LacNAc [1]: 150%
 | 330 |  | CC(=O)N[C@H]1C([C@H](O)[C@H](O)CO)O[C@@](OC2[C@H](O)C(O[C@H]3C(O)C=COC3CO)OC(CO)[C@@H]2O)(C(=O)O)C[C@H]1O (some centres unmarked) [NeuAcα2,3Galβ1,4Glucal] | Km [1]: 64 mM; relative maximum velocity (Vrel) based on LacNAc [1]: 330%
 | 13 |  | CC(=O)N[C@@H]1[C@@H](O)[C@H](O[C@@H]2O[C@H](CO[C@]3(C(=O)O)C[C@H](O)[C@@H](NC(C)=O)[C@H]([C@H](O)[C@H](O)CO)O3)[C@H](O)[C@H](O)[C@H]2O)[C@@H](CO)O[C@H]1O [NeuAcα2,6Galβ1,4GlcNAc] | Km [1]: 70 mM; times less active as a substrate than the α2,3-isomer ([1]; compared with NeuAcα2,3Galβ1,4GlcNAc): about 50 times
 |  | 250 | Fucα1,2Galβ1,4Glc | 
